What was measured:
IL-1β = test: In vitro cytokine release from human PBMCs: IL-1β; type: cell-based; conditions: PBMC, lipopolysaccharide 50 pg/mL, 24 hours, read-out: inhibited the release of IL-1β
Protocol: (§1) 3-methanesulfonylpropionitrile (MSPN, prepared according to Example 1 was tested for its effects on in vitro cytokine release from human peripheral blood mononuclear cells (PBMCs). Secretion of cytokines by PBMCs plays a significant role in the inflammatory response.
(§2) MSPN was added to cultures of fresh human PBMCs at 162 μM (22 μg/mL) in duplicate. One hour later, PBMCs were stimulated to secrete cytokines using the mitogens lipopolysaccharide and concanavalin A (ConA). Lipopolysaccharide at 50 pg/mL was used to stimulate the release of interleukin IL-1β, IL-6 and tumor necrosis factor TNFα. ConA at 20 μg/mL was used to stimulate the release of IL-4 and ConA at 5 μg/mL was used to stimulate interferon IFNγ. The corticosteroid dexamethasone (100 nM) was used as a positive control. After 24 hours of incubation, the supernatants were assayed for the cytokines using the Luminex Bead kit. MSPN at 22 μg/mL inhibited the release of IL-1β, IL-6, TNFα, IL-4 and IFNγ by 95%, 98%, 98%, 7% and 21%, respectively. Dexamethasone inhibited the release of IL-1β, IL-6, TNFα, IL-4 and IFNγ by 24%, 60%, 42%, 93% and 87%, respectively.

IL-6 = test: In vitro cytokine release from human PBMCs: IL-6; type: cell-based; conditions: PBMC, lipopolysaccharide 50 pg/mL, 24 hours, read-out: inhibited the release of IL-6
Protocol: as §1, §2

TNFα = test: In vitro cytokine release from human PBMCs: TNFα; type: cell-based; conditions: PBMC, lipopolysaccharide 50 pg/mL, 24 hours, read-out: inhibited the release of TNFα
Protocol: as §1, §2

IL-4 = test: In vitro cytokine release from human PBMCs: IL-4; type: cell-based; conditions: PBMC, ConA 20 μg/mL, 24 hours, read-out: inhibited the release of IL-4
Protocol: as §1, §2

IFNγ = test: In vitro cytokine release from human PBMCs: IFNγ; type: cell-based; conditions: PBMC, ConA 5 μg/mL, 24 hours, read-out: inhibited the release of IFNγ
Protocol: as §1, §2

[1] = tested on: arachidonic acid induced ear swelling; test: Topical arachidonic acid induced ear swelling model in mice; type: in vivo; conditions: 30 min before and 15 min after challenge, at 90 minutes
Protocol: Purified 3-methanesulfonylpropionitrile (MSPN, prepared according to Example 2) was dissolved in vehicle (ethanol/acetone 1:1) to 5% (w/v). The active compound, indomethacin (positive control in vehicle), and vehicle were evaluated for anti-inflammatory activity in the topical arachidonic acid induced ear swelling model in mice.
Male ICR derived mice weighing 22±2 g were used in this experiment. 5 mice were used for each group (active compound, positive control, and vehicle). All animals were maintained in a controlled temperature (22-24° C.) and humidity (60%-70%) environment with 12-hour light/dark cycles for at least one week prior to use.
Arachidonic acid (2 mg in 20 μL acetone) was applied topically onto the anterior and posterior surfaces of the right ear of test animals to induce inflammation. MSPN in vehicle (20 μL), indomethacin (0.3 mg) in vehicle, and vehicle (20 μL) was each applied 30 minutes before and 15 minutes after arachidonic acid challenge. At 90 minutes after arachidonic acid induction of ear edema, the thickness of the right ear and the left ear was measured and the difference calculated as an indication of the inflammation in the right ear. Significant activity is defined as a reduction (inhibition) in arachidonic acid induced ear swelling by ≥30% relative to the vehicle-treated group.

[2] = Systemic (plasma) exposure of MSPN after oral and subcutaneous administration to rats; type: in vivo; conditions: after both the oral and subcutaneous routes
Protocol: This study was done to determine the systemic (plasma) exposure of MSPN after administration by the oral and subcutaneous routes to rats.
MSPN substance was prepared in water for oral administration and in saline for subcutaneous administration. Rats weighed 282 to 295 g were used in the study. Male rats (n=2) were given a single dose at 50, 160 or 500 mg/kg by both oral and subcutaneous routes. Female rats (n=2) were dosed only at 500 mg/kg by both oral and subcutaneous routes. The blood was drawn from each rat at 0.25, 1, 2, 3, 4, 6, 12, 24, and 48 hours and measured for MSPN concentration by LC/MS/MS.

[3] = Oral systemic toxicity administration in rats; type: in vivo
[4] = Oral systemic toxicity administration in dogs; type: in vivo
[5] = Storage stability of the isolated product at room temperature; type: physicochemical; conditions: oil or solid form, enclosed vessel, room temperature (22-28° C.)
Source text: In a preferred embodiment, the water-immiscible organic solvent is ethyl acetate. After the aqueous phase is removed, the ethyl acetate solvent is removed from the product by any means known to a person skilled in the art. For example, the ethyl acetate solvent can be removed by evaporation such as rotary evaporation or drying under nitrogen gas. After the ethyl acetate solvent is removed, the product 3-methanesulfonylpropionitrile is obtained in an oil form or in a solid form, which is stored in an enclosed vessel (such as a capped vial or bottle) and is stable for at least 1-3 months at room temperature (22-28° C.).

C[C@@H]1C[C@H]2[C@@H]3CCC4=CC(=O)C=C[C@]4(C)[C@@]3(F)[C@@H](O)C[C@]2(C)[C@@]1(O)C(=O)CO [Dexamethasone, dexamethasone, reference compound]
inhibition at 0.1 µM (IL-1β; dexamethasone 100 nM): 24%
inhibition at 0.1 µM (IL-6; dexamethasone 100 nM): 60%
inhibition at 0.1 µM (TNFα; dexamethasone 100 nM): 42%
inhibition at 0.1 µM (IL-4; dexamethasone 100 nM): 93%
inhibition at 0.1 µM (IFNγ; dexamethasone 100 nM): 87%

CS(=O)(=O)CCC#N [MSPN, 3-methanesulfonylpropionitrile]
inhibition at 162 µM (IL-1β; MSPN at 22 μg/mL (162 μM)): 95%
inhibition at 162 µM (IL-6; MSPN at 22 μg/mL (162 μM)): 98%
inhibition at 162 µM (TNFα; MSPN at 22 μg/mL (162 μM)): 98%
inhibition at 162 µM (IL-4; MSPN at 22 μg/mL (162 μM)): 7%
inhibition at 162 µM (IFNγ; MSPN at 22 μg/mL (162 μM)): 21%
decrease in the ear swelling induced by arachidonic acid relative to vehicle-treated group ([1]; 5% (w/v) in ethanol/acetone 1:1, 20 μL topical): 31%
bioavailability [2]: significant bioavailability
effects seen after oral, systemic toxicity administration ([3]; rat, in vivo, po): mild physiological effects including decreased body temperature, decreased respiratory rate, increased blood pressure and increased heart rate
doses at which effects were seen, above expected human therapeutic doses ([3]; rats, oral): over 2000 fold
effects seen after oral, systemic toxicity administration ([4]; dog, in vivo, po): mild physiological effects including decreased body temperature, decreased respiratory rate, increased blood pressure and increased heart rate
doses at which effects were seen, above expected human therapeutic doses ([4]; dogs, oral): over 2000 fold
stable on storage [5]: 1-3 months

COc1ccc2c(c1)c(CC(=O)O)c(C)n2C(=O)c1ccc(Cl)cc1 [indomethacin, reference compound]
decrease in the ear swelling induced by arachidonic acid relative to vehicle-treated group ([1]; 0.3 mg in vehicle topical): 60%
